Data on one compound can be found in patent publication US5866775A, “Glyphosate-tolerant 5-enolpyruvyl-3-phosphoshikimate synthases” (Monsanto Company, priority 1990, dated 1999).

Test [1] addresses T1, EPSPS in crude extracts of tobacco plants transformed with pMON10079 (Petunia hybrida, UniProt P11043, A264T/G173A).
T1 construct: an alanine to threonine substitution at position 192 of the mature EPSPS enzyme has also been introduced into other plant species such as tobacco; expressed in transfected cells; host or cells: transgenic tobacco plants (pMON10079), crude plant extracts
Briefly: EPSPS assay of crude plant extracts in the presence of glyphosate. The test is classed as biochemical. To be noted: 1.0 mM glyphosate; eleven transformed plants. From the text: Thus, the petunia EPSPS variant with the glycine to alanine substitution at position 101 and the alanine to threonine substitution at position 192 does confer glyphosate tolerance to transformed plants.

Test [2] concerns petunia leaf disks transformed with pMON546 (CaMV35S/EPSP synthase gene). Briefly: Leaf disk callus growth on glyphosate medium, transformed disks. The test is classed as cell-based. The conditions noted are these: within 10 days. The protocol:
Leaf disks with diameters of 6 mm (1/4 inch) were taken from surface-sterilized petunia leaves. They were cultured on MS104 agar medium for 2 days to promote partial cell wall formation at the wound surfaces. They were then submerged in a culture of A. tumefaciens cells containing both pMON546 and GV3111-SE which had grown overnight in Luria broth at 28° C., and shaken gently. The leaf disks were removed from the bacterial suspension, blotted dry, and incubated upside down on filter paper placed over "nurse" cultures of tobacco cells, as described by Horsch (1980). After 2 or 3 days, the disks were transferred to petri dishes containing MS media with 500 μg/ml carbenicillin and 0. 0.1, 0.25, or 0.5 mM glyphosate (sodium salt), with no nurse cultures.

Test [3] concerns petunia plants transformed with pMON546 (CaMV35S/wild-type petunia EPSP synthase). Description: Plant response to glyphosate spraying, chimeric EPSPS plants. The test is classed as in vivo. The conditions noted are these: 0.8 #/acre acid equivalent (0.897 kg/hectare), isopropylamine salt, spray. From the text:
Transformed petunia plants were produced by regeneration from the above-described transformed leaf disks by the procedure described by Horsch, et al. (1985). The transformed plants obtained contained the pMON546 vector, described hereinabove, which contains the CaMV35S promoter fused to the wild-type petunia EPSP synthase gene.
Four individual representative transgenic seedlings were selected, grown and tested in the testing procedure described below, along with four individual non-transformed (wild-type) petunia seedlings.
The plants were grown in a growth medium in a growth chamber at 26° C. with 12 hours of light per day. The plants were fertilized weekly with a soluble fertilizer and watered as needed. The plants were sprayed at a uniform and reproducible delivery rate of herbicide by use of an automated track sprayer. The glyphosate solution used was measured as pounds of glyphosate acid equivalents per acre, mixed as the glyphosate isopropylamine salt, with an ionic surfactant.
Four individual wild-type (non-transformed) petunia plants were selected for use as control plants. Four individual transformed plants containing the pMON546 vector were selected by kanamycin resistance as described by Horsch, et al. (1985). […]

For test [4], the system named is non-transformed canola plants. Briefly: Glyphosate spray of canola, non-transformed controls. The test is classed as in vivo. The conditions noted are these: 0.56 kg/ha spray. From the text:
A total of 15 transgenic canola plants containing the pMON10074 construct, and 2 non-transformed controls were sprayed with glyphosate at a commercial rate of 0.56 kg/ha. The effect of glyphosate on both the vegetative and reproductive performance of the sprayed plants was scored at 7, 14 and 28 days after spray. The effect of glyphosate was translated to a numerical scale of 0-10, where 0 represents total kill and 10 represents the normal, unsprayed plant. The non-transformed controls had vegetative scores of 2 after 14 days and reproductive scores of 0 after 28 days.

The test system of test [5] is transgenic canola plants containing pMON10074 (Arabidopsis EPSPS gly-ala(101), ala-thr(192)). Briefly: Glyphosate spray of canola, pMON10074 plants. The test is classed as in vivo. The conditions noted are these: 0.56 kg/ha spray; 15 transgenic plants. An excerpt:
The resulting plasmid, pMON8324, was partially sequenced to confirm the mutagenesis. […] The pMON10074 plasmid contains the following DNA segments (FIG. 5, clockwise). First, the 0.93 kb fragment isolated from transposon Tn7 which encodes bacterial spectinomycin/streptomycin resistance (Spc/Str), and is a determinant for selection in E. coli and Agrobacterium tumefaciens (Fling et al. 1985). This is joined to the chimeric kanamycin resistance gene engineered for plant expression to allow selection of the transformed tissue. […]
A total of 15 transgenic canola plants containing the pMON10074 construct, and 2 non-transformed controls were sprayed with glyphosate at a commercial rate of 0.56 kg/ha. The effect of glyphosate on both the vegetative and reproductive performance of the sprayed plants was scored at 7, 14 and 28 days after spray. […]

T1 sequence (P11043 73-516 G173A/A264T): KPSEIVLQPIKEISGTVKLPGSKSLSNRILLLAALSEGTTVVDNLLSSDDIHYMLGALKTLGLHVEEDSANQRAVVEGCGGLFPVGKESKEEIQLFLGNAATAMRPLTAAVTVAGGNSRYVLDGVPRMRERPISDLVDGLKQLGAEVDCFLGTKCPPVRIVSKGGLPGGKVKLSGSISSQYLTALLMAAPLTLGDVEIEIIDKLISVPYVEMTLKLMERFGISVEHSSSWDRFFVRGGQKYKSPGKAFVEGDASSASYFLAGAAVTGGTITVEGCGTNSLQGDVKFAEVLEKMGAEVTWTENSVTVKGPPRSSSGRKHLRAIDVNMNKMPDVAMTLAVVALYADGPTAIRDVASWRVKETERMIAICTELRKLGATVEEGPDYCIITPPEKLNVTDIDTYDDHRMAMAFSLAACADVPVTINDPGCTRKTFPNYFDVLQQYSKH

With `O=C(O)CNCP(=O)(O)O` [glyphosate, N-phosphonomethylglycine], the “glyphosate resistance of plant EPSPS” value in test [1] is given as “all eleven exhibited glyphosate resistance”. For the same compound, the “callus growth, transformed versus control disks” value in test [2] (0.1 mM glyphosate (sodium salt)) was “little detectable difference between the control disks and the transformed tissue”. Besides, the figures for the callus growth in test [2] (0.25 mM glyphosate (sodium salt)) and in test [2] (0.5 mM glyphosate (sodium salt)) were “substantial growth of transformed tissue occurred” and “a significant number of calli grew from the transformed disks”, respectively. Moreover, the “Visual Appearance” value in test [3] is “growing well”. Besides, the “vegetative score (scale 0-10, 0 total kill, 10 normal unsprayed plant)” value in test [4] (after 14 days) is given as 2; in test [5], 6 out of 15 plants having vegetative scores greater than 8, with 1 scoring a 10. Also, the “reproductive score (scale 0-10, 0 total kill, 10 normal unsprayed plant)” value in test [4] (after 28 days) is given as 0; in test [5], 7 out of 15 had reproductive scores greater than 8 with 3 of them scoring 10.
